For one test, the target named is T1, BRD4 BD2 (Homo sapiens, UniProt O60885).
T1 construct: made in house
Kind of test: AlphaScreen binding assay, BRD4 Bromodomain 2. Put shortly:
(§1)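 An AlphaScreen competition format was used with His-BRD4 BD1 or BD2 and biotin-H4 K5/8/12/16-acetyl peptide, each at matched final levels of 50 nM (BD1) or 100 nM (BD2). Incubation in HEPES/NaCl buffer with 0.1% BSA and 0.01% Triton X-100 ran ≥1 h before IC50 determination.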
For orientation: In Alpha technology, singlet oxygen from a donor bead excites a nearby acceptor bead.

Another test concerns the target T2, BRD4 BD1 (Homo sapiens, UniProt O60885).
T2 construct: made in house
Kind of test: AlphaScreen binding assay, BRD4 Bromodomain 1. The method in brief:
as §1

A value given as a limit tells only on which side of the number the result lay.

On to `CC(=O)N1c2ccccc2N(C(=O)CC(C)C)C[C@@H]1C` [Example I-708], for which the IC50 on BRD4 BD2 is over 500 nM; on BRD4 BD1, over 10000 nM.
In the same order, the values of `CC(=O)N1c2ccccc2N(C(=O)Cc2ccc3c(c2)OCO3)C[C@@H]1C` [Example I-709] are over 500 nM and over 10000 nM.
For `CC(=O)N1c2ccccc2N(C(=O)Cc2cccc(C(F)(F)F)c2)C[C@@H]1C` [Example I-710], the IC50 on BRD4 BD2 was over 500 nM; at BRD4 BD1, over 10000 nM.
On the same counts, the results for `COc1ccccc1CC(=O)N1C[C@H](C)N(C(C)=O)c2ccccc21` [Example I-711] are over 500 nM and over 10000 nM.
On the same counts, the results for `CC(=O)N1c2ccccc2N(C(=O)COc2ccccc2)C[C@@H]1C` [Example I-712] are over 500 nM and over 10000 nM.
In the same order, the values of `CC(=O)N1c2ccccc2N(C(=O)CC2CCCC2)C[C@@H]1C` [Example I-713] are over 500 nM and over 10000 nM.
As for `CC(=O)N1c2ccccc2N(C(=O)C2CCCC2)C[C@@H]1C` [Example I-714], the results for the IC50 at BRD4 BD2 and at BRD4 BD1 were over 500 nM and over 10000 nM, respectively.
On to `CC(=O)N1c2ccccc2N(C(=O)[C@H](C)c2ccccc2)C[C@@H]1C` [Example I-715], for which the figures for the IC50 on BRD4 BD2 and on BRD4 BD1 were over 500 nM and over 10000 nM, respectively.
On the same counts, the results for `CC(=O)N1c2ccccc2N(C(=O)c2ccc3ccccc3c2)C[C@@H]1C` [Example I-716] are over 500 nM and over 10000 nM.
On the same counts, the results for `CC(=O)N1c2ccccc2N(C(=O)c2ccc3c(c2)CCO3)C[C@@H]1C` [Example I-717] are over 500 nM and over 10000 nM.
For `CC(=O)N1c2ccccc2N(C(=O)c2cccc(Cl)c2)C[C@@H]1C` [Example I-718], the IC50 was over 500 nM on BRD4 BD2 and over 10000 nM at BRD4 BD1.
In the same order, the values of `CC(=O)N1c2ccccc2N(C(=O)c2cccc3ccccc23)C[C@@H]1C` [Example I-719] are over 500 nM and over 10000 nM.
On the same counts, the results for `CC(=O)N1c2ccccc2N(C(=O)c2ccco2)C[C@@H]1C` [Example I-720] are 50 to 500 nM and over 10000 nM.
On the same counts, the results for `CC(=O)N1c2ccccc2N(C(=O)c2cnc(C)cn2)C[C@@H]1C` [Example I-721] are over 500 nM and over 10000 nM.
In the case of `CC(=O)N1c2ccccc2N(C(=O)c2cc(C)on2)C[C@@H]1C` [Example I-722], the 50% inhibitory concentration (IC50) on BRD4 BD2 was over 500 nM; on BRD4 BD1, over 10000 nM.
In the same order, the values of `CC(=O)N1c2ccccc2N(C(=O)c2ccc(-n3cccn3)cc2)C[C@@H]1C` [Example I-723] are over 500 nM and over 10000 nM.
On the same counts, the results for `CC(=O)N1c2ccccc2N(C(=O)c2ccc3ncsc3c2)C[C@@H]1C` [Example I-724] are over 500 nM and over 10000 nM.
In the same order, the values of `CC(=O)N1c2ccccc2N(C(=O)c2csc(Nc3cccnc3)n2)C[C@@H]1C` [Example I-725] are over 500 nM and over 10000 nM.
In the case of `CC(=O)N1c2ccccc2N(C(=O)c2cnc(-c3cccnc3)s2)C[C@@H]1C` [Example I-726], the IC50 is over 500 nM at BRD4 BD2 and over 10000 nM on BRD4 BD1.
In the case of `CC(=O)N1c2ccccc2N(C(=O)CSc2ccccc2)C[C@@H]1C` [Example I-727], the IC50 at BRD4 BD2 was over 500 nM; on BRD4 BD1 it was over 10000 nM.
In the same order, the values of `CC(=O)N1c2ccccc2N(C(=O)c2ccc(C(C)C)cn2)C[C@@H]1C` [Example I-728] are over 500 nM and over 10000 nM.
Take `CC(=O)N1c2ccccc2N(C(=O)c2ccc(C(C)C)nc2)C[C@@H]1C` [Example I-729]: the IC50 at BRD4 BD2 is over 500 nM; on BRD4 BD1, over 10000 nM.
On the same counts, the results for `CC(=O)N1c2ccccc2N(C(=O)c2cc3ccccc3[nH]2)CC1C` (centres unmarked) [Example I-730] are over 500 nM and over 10000 nM.
In the same order, the values of `CC(=O)N1c2ccccc2N(C(=O)Cc2cccs2)C[C@@H]1C` [Example I-731] are over 500 nM and over 10000 nM.
On the same counts, the results for `CC(=O)N1c2ccccc2N(C(=O)COc2ccc(Cl)cc2)C[C@@H]1C` [Example I-732] are over 500 nM and over 10000 nM.
As to `COc1ccc(OCC(=O)N2C[C@H](C)N(C(C)=O)c3ccccc32)cc1` [Example I-733], the results for the IC50 at BRD4 BD2 and at BRD4 BD1 were over 500 nM and over 10000 nM, respectively.
In the same order, the values of `CC(=O)N1c2ccccc2N(C(=O)COc2ccc3ccccc3c2)C[C@@H]1C` [Example I-734] are over 500 nM and over 10000 nM.
In the same order, the values of `CC(=O)N1c2ccccc2N(C(=O)COc2ccc(F)cc2)C[C@@H]1C` [Example I-735] are over 500 nM and over 10000 nM.
For the compound `CC(=O)N1c2ccccc2N(C(=O)COc2cccc3ccccc23)C[C@@H]1C` [Example I-736], the IC50 is over 500 nM at BRD4 BD2 and over 10000 nM at BRD4 BD1.
On the same counts, the results for `CC(=O)N1c2ccccc2N(C(=O)[C@H]2COc3ccccc3O2)C[C@@H]1C` [Example I-737] are over 500 nM and over 10000 nM.
In the same order, the values of `COCC(=O)N1C[C@H](C)N(C(C)=O)c2ccccc21` [Example I-738] are over 500 nM and over 10000 nM.
Consider `CC(=O)N1c2ccccc2N(C(=O)Cc2csc3ccc(Cl)cc23)C[C@@H]1C` [Example I-739], for which the IC50 on BRD4 BD2 is over 500 nM; at BRD4 BD1, over 10000 nM.
On the same counts, the results for `CO[C@@H](C(=O)N1C[C@H](C)N(C(C)=O)c2ccccc21)c1ccccc1` [Example I-740] are over 500 nM and over 10000 nM.
On the same counts, the results for `CO[C@H](C(=O)N1C[C@H](C)N(C(C)=O)c2ccccc21)c1ccccc1` [Example I-741] are over 500 nM and over 10000 nM.
On the same counts, the results for `CC(=O)N1c2ccccc2N(C(=O)c2ccc(Oc3ccccc3)cc2)C[C@@H]1C` [Example I-742] are over 500 nM and over 10000 nM.
On to `CC(=O)N1c2ccccc2N(C(=O)c2ccc(Cl)cc2)C[C@@H]1C` [Example I-743], for which the IC50 is over 500 nM at BRD4 BD2 and over 10000 nM on BRD4 BD1.
On the same counts, the results for `CC(=O)N1c2ccccc2N(C(=O)c2ccccc2Oc2ccccc2)C[C@@H]1C` [Example I-744] are over 500 nM and over 10000 nM.
In the same order, the values of `CC(=O)N1c2ccccc2N(C(=O)c2cccs2)C[C@@H]1C` [Example I-745] are over 500 nM and over 10000 nM.
As to `CC(=O)N1c2ccccc2N(C(=O)c2cc3ccccc3s2)C[C@@H]1C` [Example I-746], the IC50 at BRD4 BD2 was over 500 nM; at BRD4 BD1, over 10000 nM.
On the same counts, the results for `COc1cscc1C(=O)N1C[C@H](C)N(C(C)=O)c2ccccc21` [Example I-747] are over 500 nM and over 10000 nM.
In the same order, the values of `CC(=O)N1c2ccccc2N(C(=O)c2cc3ccccc3n2C)C[C@@H]1C` [Example I-748] are over 500 nM and over 10000 nM.
`CC(=O)N1c2ccccc2N(C(=O)c2cc(C)oc2C)C[C@@H]1C` [Example I-749]: the results for the IC50 on BRD4 BD2 and on BRD4 BD1 were over 500 nM and over 10000 nM, respectively.
On the same counts, the results for `CC(=O)N1c2ccccc2N(C(=O)c2cc(C)c(C)o2)C[C@@H]1C` [Example I-750] are over 500 nM and over 10000 nM.
In the same order, the values of `CC(=O)N1c2ccccc2N(C(=O)c2cc3ccccc3o2)C[C@@H]1C` [Example I-751] are over 500 nM and over 10000 nM.
On the same counts, the results for `CC(=O)N1c2ccccc2N(C(=O)c2cnc3ccccc3c2)C[C@@H]1C` [Example I-752] are over 500 nM and over 10000 nM.
Turning to `COc1cc(C(=O)N2C[C@H](C)N(C(C)=O)c3ccccc32)nc2ccccc12` [Example I-753], the IC50 on BRD4 BD2 is over 500 nM; on BRD4 BD1, over 10000 nM.
In the same order, the values of `CC(=O)N1c2ccccc2N(C(=O)c2ccnc3ccccc23)C[C@@H]1C` [Example I-754] are over 500 nM and over 10000 nM.
On the same counts, the results for `CC(=O)N1c2ccccc2N(C(=O)c2cc(C)n(C)n2)C[C@@H]1C` [Example I-755] are over 500 nM and over 10000 nM.
In the same order, the values of `CC(=O)N1c2ccccc2N(C(=O)c2cnn(-c3ccccc3)c2C(F)(F)F)C[C@@H]1C` [Example I-756] are over 500 nM and over 10000 nM.
With `CC(=O)N1c2ccccc2N(C(=O)c2snnc2C)C[C@@H]1C` [Example I-757], the IC50 at BRD4 BD2 was over 500 nM; on BRD4 BD1, over 10000 nM.
Take `COc1ncccc1C(=O)N1C[C@H](C)N(C(C)=O)c2ccccc21` [Example I-758]: the IC50 at BRD4 BD2 was over 500 nM; at BRD4 BD1 it was over 10000 nM.
Regarding `CC(=O)N1c2ccccc2N(C(=O)c2cc3cc(Cl)ccc3o2)C[C@@H]1C` [Example I-759], the IC50 on BRD4 BD2 is over 500 nM; at BRD4 BD1, over 10000 nM.
In the same order, the values of `CC(=O)N1c2ccccc2N(C(=O)c2ccc3cc[nH]c3c2)CC1C` (centres unmarked) [Example I-760] are over 500 nM and over 10000 nM.
In the same order, the values of `CC(=O)N1c2ccccc2N(C(=O)c2csc(C(F)(F)F)n2)C[C@@H]1C` [Example I-761] are over 500 nM and over 10000 nM.
In the same order, the values of `CC(=O)N1c2ccccc2N(C(=O)CC2CCN(S(C)(=O)=O)CC2)C[C@@H]1C` [Example I-762] are over 500 nM and over 10000 nM.
Take `CC(=O)N1c2ccccc2N(C(=O)c2ccc(F)cn2)C[C@@H]1C` [Example I-763]: the IC50 was over 500 nM at BRD4 BD2 and over 10000 nM at BRD4 BD1.
Consider `CC(=O)N1c2ccccc2N(C(=O)CN2CCCCCC2=O)C[C@@H]1C` [Example I-764], for which the IC50 on BRD4 BD2 is over 500 nM; at BRD4 BD1 it was over 10000 nM.
On the same counts, the results for `CC(=O)N1c2ccccc2N(C(=O)CCN2CCCCCC2=O)C[C@@H]1C` [Example I-765] are over 500 nM and over 10000 nM.

In general, IC50 refers to the concentration at which inhibition is half-maximal. A higher IC50 goes with weaker potency.
